This is an account of results in patent US20090247558A1, “USE OF THE CRH (CORTICOTROPIN RELEASING HORMONE) - UCN (UROCORTIN) SYSTEM IN THE TREATMENT OF INFLAMMATORY DISEASES” (priority 2002, published 2009).

Positions count from the first letter of the chain named. Entries after “also recorded” stand apart in the source; their conditions may differ. No end group written: not given here.

For data set [1], the system named is Balb/c mice. Description: Determination of the LD50 of LPS i.p. Type of data set: in vivo.
Data set [2] concerns the target T1, CRH-R2 receptor (Mus musculus, UniProt Q60748).
T1 construct: monocyte/macrophage cells which express both the CRH-R1 and the CRH-R2 receptors on the surface; endogenous in cells; host or cells: macrophages
The following applies: cited from earlier work.

Data set [3] concerns the target T2, CRH-R1 receptor (Mus musculus, UniProt P35347).
T2 construct: monocyte/macrophage cells which express both the CRH-R1 and the CRH-R2 receptors on the surface; endogenous in cells; host or cells: macrophages in vitro (RAW 264.7 or Balb/c peritoneal macrophages, inferred)
T2 sequence (P35347 24-415): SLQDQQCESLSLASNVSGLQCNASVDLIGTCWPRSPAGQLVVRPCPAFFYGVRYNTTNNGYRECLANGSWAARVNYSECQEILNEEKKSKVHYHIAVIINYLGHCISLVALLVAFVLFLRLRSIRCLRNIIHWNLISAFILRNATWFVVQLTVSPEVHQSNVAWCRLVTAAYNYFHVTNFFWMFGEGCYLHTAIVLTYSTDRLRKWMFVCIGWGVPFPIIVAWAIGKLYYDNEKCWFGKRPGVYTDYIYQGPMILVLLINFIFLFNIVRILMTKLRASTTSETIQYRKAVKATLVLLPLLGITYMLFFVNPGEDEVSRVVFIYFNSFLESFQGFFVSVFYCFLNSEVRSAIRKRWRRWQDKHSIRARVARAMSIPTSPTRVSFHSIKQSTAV
The following applies: cited from earlier work.

Data set [4] has as its target T3, CRH-R1 receptor (Rattus norvegicus, UniProt P35353).
T3 construct: endogenous in cells; host or cells: PC12 rat pheochromocytoma cells
T3 sequence (P35353 24-415): T2 sequence (P35347 24-415) with Q6R, S9N, A13T, I95V, Y229H
The following applies: PC12 rat pheochromocytoma cells; cited from earlier work.

The subject of data set [5] is LPS-induced endotoxin shock in Balb/c mice. Description: Serum proinflammatory cytokines (ELISA) in LPS-induced endotoxin shock. The following applies: for TNF-α level / IL-6 level / IL-1β level: antalarmin pre-treated vs LPS alone; for IL-6 level / IL-1β level: 4 hours after LPS; for IL-1β level: p=0.013. It is filed as in vivo. How it is done:
(§1) Each time point and treatment group was composed of five animals per experiment. Sera were collected and frozen until used for cytokine determination by ELISA according to manufacturer (R&D, NE, USA). Similarly, cell culture supernatants were collected 24 hours following stimulation and stored at −70° C. until analyzed. Corticosterone was measured by RIA in serum collected 1 hour following LPS administration. Five animals per treatment were used. Sera were frozen at −70° C. and analyzed as recommended by the manufacturer (ICN, USA).

The test system is the same in data set [6]. The procedure: Male 20- to 25-g Balb/c mice 8 to 10 weeks old were used. They were kept in our animal facility for at least one week prior to each experiment to allow adjustment and confirmation of their health. Each animal received rodent laboratory chow and water ad libitum. The CRH-R1 antagonist used was provided by the Pediatric and Reproductive Endocrinology Branch, NICHD, NIH, Bethesda, Md. Antalarmin was initially dissolved into 100% ethanol at a concentration of 200 mg/ml and then diluted in a 1:1 ratio with Cremaphor EL (Sigma), and finally brought to a working stock of 2 mg/ml antalarmin in 10% ethanol and 10% Cremaphor EL in sterile water. E coli lipopolysaccharide (serotype 0111:B4, cat. # L2630) and Salmonella enteritidis lipopolysaccharide (cat. # L6011) were purchased from Sigma. The antibodies and the reagents for the TNF-α, IL-1β and IL-6 determination were purchased from R&D (NE, USA).
For the determination of the LD50 groups composed of five mice were injected intraperitoneally (i.p) with either 200, 400, 600, 700 or 1000 μg/mouse of Salmonella-derived LPS (Sigma) dissolved in PBS at a concentration of 10 mg/ml. Survival of animals was monitored for a period of seven days. The same protocol was used for E. coli-derived LPS (O111:B4). To determine the effect of antalarmin in the survival of mice injected with LPS, 40 mice were divided in four different groups; the first group received antalarmin at a concentration of 20 mg/kg of body weight; the second received antalarmin at 20 mg/kg of body weight and LPS at a concentration of 0.7 mg per 25 g of body weight; the third group received LPS and the antalarmin diluent while the fourth group received the antalarmin diluent alone.

In data set [7] the test system is RAW264.7 cells. Description: Cytokine mRNA in RAW264.7 cells, semi-quantitative RT-PCR. It is filed as cell-based, mouse. The procedure: (§2) RAW 264.7 cells were cultured in Dulbecco's Modified Eagle Medium supplemented with 10% fetal calf serum (FCS), 10 mM L-glutamine, 100 U/ml penicillin, 0.1 mg/ml streptomycin (all purchased by Gibco), at 5% CO2 and 37° C. Cells were plated in 25 cm^2 flasks one day prior to stimulation. Cells were then stimulated with 10 μg/ml Ecoli-derived LPS (serotype 0111:B4, cat. # L2630, Sigma) and recombinant CRH (Sigma) at a concentration of 10^−8 M.
(§3) Total cellular RNA was isolated using Trizol reagent (Gibco). Following reverse transcription (Thermoscript RT, Invitrogen), 1 μl of the cDNA product was amplified by PCR at 33 cycles. […] Intensity of the bands was quantified using TINAscan software.
(§4) Primers for actin were: sense, 5′-TCAGAAGAACTCCTATGTGG-3′; antisense, 5′-TCTCTTTGATGTCACGCACG-3′, giving a 499 bp product; for Tnf-α were: 5′-CACGCTCTTCTGTCTACTGAACTTCG-3′; 5′-GGCTGGGTAGAGAATGGATGAACACC-3′, giving a 590 bp product; for IL-1β were 5′-GGATGAGGACATGAGCACCT-3′ and 5′-TCCATTGAGGTGGAGAGCTT-3′, resulting in a 196 bp product; for IL-6,5′-TGAAGTTCCTCTCTGCAAGAGACT-3′,5′-TGA GGA AGG CCG TGG TTG T-3′, giving a 200 bp product. […] The quantitation was performed using the “TI-NAscan” software. […]

Data set [8] relates to thioglycollate-elicited peritoneal macrophages. Kind of data set: Cytokine mRNA in thioglycollate-elicited peritoneal macrophages, RT-PCR. Type of data set: cell-based, Balb/c mice. How it is done: A 4% thioglycollate solution was prepared and autoclaved 2 days prior to administration. 1.5 ml of the thioglycollate solution was injected intraperitoneally in BALB/c mice and peritoneal macrophages were isolated by lavage of the peritoneal cavity with Dulbecco's Modified Medium. Cells were then cultured in DMEM supplemented with 10% FCS, 10 mM L-glutamine, 100 U/ml penicillin, 0.1 mg/ml streptomycin (Gibco). Cells were plated at a concentration of 5×10^5/ml and maintained in culture 24 hours prior to stimulation.
as §3, §4

Data set [9] deals with RAW264.7 cells. Kind of data set: LPS-induced cytokine secretion from RAW264.7 macrophages (ELISA). Type of data set: cell-based, mouse. The procedure: as §2
as §1, with “Serum from trunk blood was collected as follows: a) for the determination of TNF-α 1 hour after LPS administration and b) at 4 hours for the determination of IL-1β or IL-6 levels. Each” for “Each”
For orientation: ELISA stands for enzyme-linked immunosorbent assay.

Where [10] appears, read: CRH 1×10^−8 M plus LPS 10 μg/ml, 24 hours, vs LPS alone, p=0.04.

T1 sequence (Q60748 whole entry): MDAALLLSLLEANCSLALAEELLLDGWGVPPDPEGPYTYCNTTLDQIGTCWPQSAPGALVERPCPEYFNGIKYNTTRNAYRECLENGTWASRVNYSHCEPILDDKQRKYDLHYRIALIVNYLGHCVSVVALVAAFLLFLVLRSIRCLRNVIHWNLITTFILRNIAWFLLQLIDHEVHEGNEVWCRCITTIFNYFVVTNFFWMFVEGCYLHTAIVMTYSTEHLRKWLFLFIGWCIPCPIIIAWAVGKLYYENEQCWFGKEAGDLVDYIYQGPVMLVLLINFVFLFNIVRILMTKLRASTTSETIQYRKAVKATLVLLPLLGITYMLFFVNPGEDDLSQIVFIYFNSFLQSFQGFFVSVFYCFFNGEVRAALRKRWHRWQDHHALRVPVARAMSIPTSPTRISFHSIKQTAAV

In the case of Lipopolysaccharide [LPS], the animals survived result is reported as “One hundred” in data set [1] (LPS 0.2 mg/25 g i.p.); 80% in data set [1] (LPS 0.4 mg/25 g i.p.); 40% in data set [1] (LPS 0.6 mg/kg i.p. (so in the source)); “none” in [1] (LPS 0.7 mg/25 g i.p.); “none” in [1] (LPS 1 mg/25 g i.p.). Besides, the LD100 in [1] (LPS i.p., mice) is ≥ 0.7 mg per 25 g of body weight. Besides, in [1] (LPS i.p., mice, survival monitored seven days), the LD50 is 0.5 mg per 25 g body weight.

As for “Urocortin II (IVLSLDVPIGLLQILLEQARARAAREQATTNARILARVGHC; ends and bridges not checked; UniProt Q96RP3 72-112, looked up) [CRH-related peptide that induces macrophage apoptosis via the CRH-R2 receptor]”, the apoptosis on macrophages result in data set [2] is listed as “induce apoptosis”.

sauvagine-30: the “effect on Urocortin / Urocortin II induced macrophage apoptosis” value in data set [2] was “completely abolishes”.

Consider `CCCCN(CC)c1nc(C)nc2c1c(C)c(C)n2-c1c(C)cc(C)cc1C` [antalarmin], for which the “effect on the enhancing effect of CRH” value in data set [3] (macrophages in vitro, LPS) is reported as “blocked completely”. In addition, in [4], the “effect on CRH-mediated effects (p38, Fas ligand, apoptosis)” value was “blocks all”. For the same compound, the TNF-α level entry is on record as “significantly reduced” in data set [5] (1 h after LPS, p=0.001) and “significantly lower” in data set [5] (2 hours after LPS injection, p<0.001). Moreover, the IL-6 level result is listed as “significantly lower” in data set [5] (p<0.001) and “significantly reduced” in data set [5] (p<0.001, listed as Antalarmin). For the same compound, the IL-1β level entry in data set [5] was “significantly lower”; in data set [5] (listed as Antalarmin), “significantly reduced”. In addition, in data set [5] (6 hours after LPS, p<0.001, value describes LPS alone relative to LPS plus antalarmin), the “IL-6 level of LPS treated animals compared with LPS plus antalarmin treated mice” value is on record as “significantly higher”. Besides, the “IL-1β level of LPS treated animals compared with LPS plus antalarmin treated mice” value in data set [5] (6 hours after LPS, p<0.01, value describes LPS alone relative to LPS plus antalarmin) was “significantly higher”. For the same compound, the “mice still alive at 18 h” value in [6] (E coli-derived LPS 0.7 mg/25 g, antalarmin pre-treatment, all animals with LPS alone had died) worked out at 72%. In addition, in data set [6] (E coli-derived LPS, in the presence of antalarmin, p=0.002, observed 7 days), the overall survival entry is “significantly improved”. In addition, the “animals that had died at 18 hours” value in [6] (Salmonella enteritidis-derived LPS 0.7 mg/25 g i.p., antalarmin 20 mg/kg IP 1.5 h prior to LPS, LPS alone 60%) is reported as 20%.

As for corticotropin-releasing hormone [CRH], the “inflammatory response to lipopolysaccharide (LPS) of macrophages” value in data set [3] (in vitro) is reported as “enhances”. For the same compound, in data set [4], the Fas ligand production result is listed as “stimulates”, the apoptosis result was “induces apoptosis” and the “p38 mitogen-activated protein kinase” value is listed as “activates”. Besides, the “LPS-induced cytokine transcription (IL-1β, TNF-α, IL-6 mRNA)” value in [7] (CRH plus LPS, densitometry normalized versus actin) is “further potentiates; also recorded: strongly augmented”. For the same compound, the “transcription of IL-1β, TNF-α, or IL-6, CRH alone” value in data set [7] (CRH without LPS) is given as “induces expression; also recorded: minimal transcription”. Besides, the “LPS-induced pro-inflammatory cytokine expression” value in data set [8] (CRH plus LPS) is reported as “augments; also recorded: significantly augmented”. In addition, the “TNF-α, IL-1β or IL-6 transcription, CRH alone” value in data set [8] (CRH without LPS) was “unable to induce”. For the same compound, the “LPS-induced IL-1β secretion” value in [9] (CRH 1×10^−8 M plus LPS 10 μg/ml, 24 hours, vs LPS alone, p=0.01) is reported as “potentiates; also recorded: significantly augmented”. Further, in data set [9] (setting [10]), the “LPS-induced IL-6 secretion” value is reported as “potentiates; also recorded: significantly augmented” and the “LPS-induced TNF-α secretion” value is listed as “significantly higher; also recorded: significantly augmented”. Besides, the “cytokine secretion, CRH alone” value in data set [9] (CRH 1×10^−8 M without LPS) is reported as “only a minimal effect”.
